Laboratory results reported in patent US7598234B2, “Steroid derived antibiotics” (Brigham Young University, priority 1998, dated 2009).
Converted amounts (≈) assume the structure as drawn.

Legend:
[1] = test system: E. coli (ATCC 25922); assay: MIC and MBC measurement with E. coli (ATCC 25922); type: cell-based, Escherichia coli
Procedure, shortened: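 Bacteria incubated statically 24 h at 37 °C in TSB with graded compound concentrations (erythromycin or novobiocin added 15 min later in sensitization runs). MIC from turbidity at 760 nm; MBC by subculturing clear samples on TSA and comparing CFU/mL to inoculum.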

[2] = test system: Klebsiella pneumonia ATCC 13883; assay: MIC and MBC measurement with Klebsiella pneumoniae ATCC 13883; type: cell-based; conditions: Table 10
Procedure, shortened: (§1)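 Tube dilution in tryptic soy broth: compound (HCl salt in water) at graded concentrations, stationary incubation at 37° C. for 24 hours, growth read as absorbance at 760 nm. Non-turbid tubes were subcultured on TSA and CFU/mL compared with the original inoculum to define killing.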

[3] = test system: Klebsiella pneumonia ATCC 13883; assay: Growth inhibition and FIC with novobiocin, Klebsiella pneumoniae ATCC 13883; type: cell-based; conditions: Table 12, novobiocin (by order) at 0.5, 1.0 or 3.0 μg/mL
Experimental: (§2) Alternatively, “fractional inhibitory concentration (FIC)” is also useful for determination of synergy between the compounds of the invention, or the compounds in combination with known antibiotics. FICs can be performed by checkerboard titrations of compounds in one dimension of a microtiter plate, and of antibiotics in the other dimension, for example. The FIC is calculated by looking at the impact of one antibiotic on the MIC of the other and vice versa. […] Preferably, an FIC of less than 0.5 is obtained for synergism. As used herein, FIC can be determined as follows:
(§3) Aliquots of 1 mL of the suspension were added to test tubes containing 1 mL TSB and incrementally varied concentrations of cholic acid derivatives and/or erythromycin or novobiocin. In the sensitization experiments, erythromycin or novobiocin were added 15 minutes later than the cholic acid derivatives. The samples were subjected to stationary incubation at 37° C. for 24 hours. Sample turbidity was determined by measuring absorption at 760 nm (HP 8453 UV-Visible Chemstation, Hewlett Packard). Additionally, an alliquot from each of the samples showing no measurable turbidity was subcultured on TSA plates (alliquots were diluted to provide fewer than 300 CFU). Colonies that grew on the subculture after overnight incubation were counted and the number of CFU/mL in the samples were calculated. The calculated values were compared to the number of CFU/mL in the original inoculum.
(§4) To measure permeabilization, the FIC values for compounds 1, 2, 5, 106, 10, 112, 133, and 134 with erythromycin, novobiocin, and rifampicin were determined. Concentrations of 0.5, 1.0 or 3.0 μg/mL of these antibiotics were used, and the concentrations of the cholic acid derivatives required to inhibit bacterial growth of Gram-negative strains were determined.

[4] = test system: Pseudomonas aeruginosa ATCC 27853; assay: Growth inhibition and FIC with rifampicin, Pseudomonas aeruginosa ATCC 27853; type: cell-based; conditions: Table 13, Pseudomonas aeruginosa ATCC 27853^b; for FIC: rifampicin (by order); for concentration required to inhibit bacterial growth with antibiotic: rifampicin (by order) at 0.5, 1.0 or 3.0 μg/mL
Experimental: as §2, §3, §4

[5] = test system: Pseudomonas aeruginosa (ATCC 27853); assay: Sensitization to erythromycin, Pseudomonas aeruginosa (ATCC 27853); type: cell-based; conditions: for MIC: concentration required to lower the MIC of erythromycin from 240 μg/mL to 5 μg/mL / MBC (with erythromycin): Table 7, P. aureginosa (ATCC 27853); for MBC (with erythromycin): erythromycin sensitization; for FIC / concentration required to inhibit bacterial growth with antibiotic: Table 11, Pseudomonas aeruginosa ATCC 27853; for FIC: erythromycin (by order); for concentration required to inhibit bacterial growth with antibiotic: erythromycin (by order) at 0.5, 1.0 or 3.0 μg/mL
Procedure, shortened: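 Tube checkerboard in TSB: cholic acid derivatives added, then erythromycin or novobiocin 15 min later, antibiotics at 0.5, 1.0 or 3.0 μg/mL; stationary 37 °C, 24 h. Turbidity read at 760 nm; clear samples subcultured on TSA for CFU counts versus inoculum; FIC derived for synergy.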

[6] = test system: Streptococcus pyrogenes ATCC 19615; assay: MIC and MBC measurement with Streptococcus pyogenes ATCC 19615; type: cell-based; conditions: Table 10
Description: General: Microorganisms. Reference strains were purchased from the American Type Culture Collection (Rockville, Md.) or Bactrol disks from Difeo Laboratories (Detroit, Mich.). The following specific ATCC strains were used: 10798 Escherichia coli, 25922 Escherichia coli, 13883 Klebsiella pneumoniae, 27853 Pseudomonas aeruginosa, 14028 Salmonella typhimurium, 29212 Enterococcus faecalis, 25923 Staphylococcus aureus, 19615 Streptococcus pyogenes, and 90028 Candida albicans. Bacterial strains were maintained on Mueller-Hinton agar plates, and Candida albicans was maintained on Sabouraud Dextrose agar plates.
Tryptic soy broth (TSB) was made by dissolving 27.5 grams of tryptic soy broth without dextrose (DIFCO Laboratories) in 1 liter of deionized water and sterilizing at 121° C. for 15 minutes. Solid agar (TSA) plates were made by dissolving 6.4 grams of tryptic soy broth and 12 grams of agar (purified grade, Fischer Scientific) in 800 mL of deionized water and sterilizing at 121° C. for 20 minutes. Aliquots (20 mL) of the homogeneous solution were then poured in sterile plastic petri dishes (100×15 mm, Fisher Scientific). Solutions of compounds were made by dissolving the HCl salt of the respective compound into an appropriate amount of deionized and sterilized water followed by microfiltration.
as §3

[7] = test system: E. coli (ATCC 25922); assay: Sensitization to erythromycin, E. coli (ATCC 25922); type: cell-based, Escherichia coli; conditions: for MIC: concentration required to lower the MIC of erythromycin from 60 μg/mL to 1 μg/mL / MBC (with erythromycin): Table 5, E. coli (ATCC 25922); for MBC (with erythromycin): erythromycin sensitization; for FIC / concentration required to inhibit bacterial growth with antibiotic: Table 11, Escherichia coli ATCC 25922; for FIC: erythromycin (by order); for concentration required to inhibit bacterial growth with antibiotic: erythromycin (by order) at 0.5, 1.0 or 3.0 μg/mL
Procedure, shortened: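 Bacteria grown in TSB with varied cholic acid derivative concentrations; erythromycin (0.5, 1.0 or 3.0 μg/mL) added 15 min later; stationary incubation 37° C, 24 h. Growth read as absorbance at 760 nm, with clear samples subcultured on TSA for CFU/mL; derivative concentration inhibiting growth determined.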

[8] = test system: E. coli (ATCC 10798); assay: MIC and MBC measurement with E. coli (ATCC 10798); type: cell-based, Escherichia coli
Procedure, shortened: as §1

[9] = Experimental: Minimum inhibition concentrations (MIC) and minimum hemolytic concentrations (MHC) were measured as described in Li et al., Antimicrob. Agents. Chemother., 1999, 43, 1347.
[10] = test system: E. coli containing an inducible luciferase coding plasmid; assay: Luciferin/luciferase-based permeabilization / cell lysis assay; parameters: species or system Escherichia coli; conditions: permeabilization of the outer membrane allowing luciferin to enter the cell
Experimental: Using a technique described by J. M. Shupp, S. E. Travis, L. B. Price, R. F. Shand, P. Keim, RAPID BACTERIAL PERMEABILIZATION REAGENT USEFUL FOR ENZYME ASSAYS, Biotechniques, 1995, vol.
In this assay, E. coli containing an inducible luciferase coding plasmid was incubated with the inducing agent […], then treated with a lysis buffer containing either PMB or one of the cholic acid derivatives, and Triton X-100. Luciferin and ATP were then added. […] The concentrations of the membrane disrupting agents (PMB and the cholic acid derivatives) were varied, and the resulting luminescence was measured.

[11] = Table 10, Escherichia coli ATCC 25922
[12] = Table 9, Escherichia coli (ATCC 10798)

| SMILES | MBC ([1]; Table 4, E. coli (ATCC 25922)) | MIC ([1]; Table 4, E. coli (ATCC 25922)) | MBC [1, 11] | MIC [1, 11] | MBC [2] | MIC [2] | concentration required to inhibit bacterial growth with antibiotic [3] | FIC [4] | concentration required to inhibit bacterial growth with antibiotic [4] | MIC: concentration required to lower the MIC of erythromycin from 240 μg/mL to 5 μg/mL [5] | MBC (with erythromycin) [5] | FIC [5] | concentration required to inhibit bacterial growth with antibiotic [5] | MBC [6] | MIC [6] | MIC: concentration required to lower the MIC of erythromycin from 60 μg/mL to 1 μg/mL [7] | MBC (with erythromycin) [7] | FIC [7] | concentration required to inhibit bacterial growth with antibiotic [7] | MHC [9] | further results |
| --- | --- | --- | --- | --- | --- | --- | --- | --- | --- | --- | --- | --- | --- | --- | --- | --- | --- | --- | --- | --- | --- |
| C[C@H](CCCN(C)Cc1ccccc1)[C@H]1CC[C@H]2[C@@H]3[C@H](OCCN)C[C@@H]4C[C@H](OCCN)CC[C@]4(C)[C@H]3C[C@H](OCCN)[C@]12C [Compound 1] | 40 µg/mL (≈ 63.8 µM) | 25 µg/mL (≈ 39.9 µM) | 22 µg/mL (≈ 35.1 µM) | 22 µg/mL (≈ 35.1 µM) | >36 µg/mL | 24 µg/mL (≈ 38.3 µM) | 4.7 µg/mL | 0.096 | 1.5 µg/mL | 8 µg/mL | 45 µg/mL | 0.29 | 6.6 µg/mL | 4.4 µg/mL (≈ 7.02 µM) | 3.0 µg/mL (≈ 4.78 µM) | 2 µg/mL | 14 µg/mL | 0.15 | 2.5 µg/mL | 78 µg/mL | MBC ([8]; Table 1, E. coli (ATCC 10798)): 34 µg/mL (≈ 54.2 µM); MIC ([8]; Table 1, E. coli (ATCC 10798)): 20 µg/mL (≈ 31.9 µM) |
| C[C@H](CCCN(C)Cc1ccccc1)[C@H]1CC[C@H]2[C@@H]3[C@H](OCCCN)C[C@@H]4C[C@H](OCCCN)CC[C@]4(C)[C@H]3C[C@H](OCCCN)[C@]12C [Compound 2] | 20 µg/mL (≈ 29.9 µM) | 10 µg/mL (≈ 14.9 µM) | 6.8 µg/mL (≈ 10.2 µM) | 5.1 µg/mL (≈ 7.62 µM) | 17 µg/mL (≈ 25.4 µM) | 14 µg/mL (≈ 20.9 µM) | 0.49 µg/mL | 0.086 | 0.50 µg/mL | 4 µg/mL | 25 µg/mL | 0.25 | 2.4 µg/mL | 2.3 µg/mL (≈ 3.44 µM) | 2.0 µg/mL (≈ 2.99 µM) | 1 µg/mL | 5 µg/mL | 0.078 | 0.23 µg/mL | 58 µg/mL | half maximum luminescence [10]: 7 µg/mL; MBC ([8]; Table 1, E. coli (ATCC 10798)): 16 µg/mL (≈ 23.9 µM); MIC ([8]; Table 1, E. coli (ATCC 10798)): 7 µg/mL (≈ 10.5 µM) |
| C[C@]12CC[C@@H](OCCCN)C[C@H]1C[C@@H](OCCCN)[C@@H]1[C@@H]2C[C@H](OCCCN)[C@]2(C)[C@@H](O)CC[C@@H]12 [Compound 106] | – | – | 90 µg/mL (≈ 182 µM) | 80 µg/mL (≈ 161 µM) | 100 µg/mL (≈ 202 µM) | >100 µg/mL | 8.9 µg/mL | 0.17 | 11 µg/mL | – | – | 0.22 | 16 µg/mL | 37 µg/mL (≈ 74.6 µM) | 18 µg/mL (≈ 36.3 µM) | – | – | 0.073 | 3.2 µg/mL | >100 µg/mL | MBC [8, 12]: >200 µg/mL; MIC [8, 12]: 140 µg/mL (≈ 282 µM) |
| CCCOCCC[C@@H](C)[C@H]1CC[C@H]2[C@@H]3[C@H](OCCCN)C[C@@H]4C[C@H](OCCCN)CC[C@]4(C)[C@H]3C[C@H](OCCCN)[C@]12C [Compound 112] | – | – | 7.4 µg/mL (≈ 12.2 µM) | 6.6 µg/mL (≈ 10.9 µM) | 27 µg/mL (≈ 44.4 µM) | 23 µg/mL (≈ 37.8 µM) | 0.19 µg/mL | 0.15 | 0.50 µg/mL | – | – | 0.59 | 1.0 µg/mL | 3.0 µg/mL (≈ 4.93 µM) | 2.4 µg/mL (≈ 3.95 µM) | – | – | 0.12 | 0.59 µg/mL | 5.9 µg/mL | MBC [8, 12]: 17 µg/mL (≈ 28 µM); MIC [8, 12]: 12 µg/mL (≈ 19.7 µM) |
